Columns and labels:
EL4 thymoma tumors = test: Chemotherapy of EL4 tumors established in mice; format: in vivo
Experimental: FIG. 17. The anti-cancer activity of oxaliplatin depends on P2X7 and the NALP3 inflammasome. FIG. 17a,b,c. Therapeutic efficacy of oxaliplatin on established tumors depends on the integrity of the immune system on the P2X7/NALP3/casp-1 axis. EL4 thymoma tumors were established in syngenic mice bearing the indicated genotypes (a-c) or injected with anti-CD8 antibody (a). When the tumor reached 70-90mm^2 in size, mice were either left untreated or were treated with oxaliplatin. Each treatment group included 5-6 mice (X±SEM), and each experiment was repeated three times with similar results. * p<0.05. d. Caspase 1 is required for the immune response promoted by oxaliplatin chemotherapy. EG7 tumors established in the thigh were treated with one systemic injection of oxaliplatin. Inguinal lymph node cells were harvested 5 days later, and the gangliocytes were restimulated in vitro. IFNγ secretion was assessed by ELISA. Results (means of triplicates ±SEM, n=3) are representative of one typical experiment out of three. ^*P<0.01. FIG. 17d. The efficacy of anthracyclines against established colon cancer is dependent on IL-1β. CT26 tumors established for 10 days in WT mice were treated with one local injection of doxorubicin in the absence or presence of neutralizing anti-IL-1β Ab (n=10/group, *p<0.05). FIG. 17e. A single-nucleotide polymorphism (SNP) in P2X7 (rs3751143) affects the long-term efficacy of conventional anti-cancer therapy in breast cancer patients. Comparative Kaplan-Meier estimates of time to metastasis in two groups of patients bearing the normal (Glu496Glu) or loss-of-function (Glu496Ala) P2X7 alleles. The time to metastatic progression was analyzed in 225 women with non-metastatic breast cancer who received adjuvant chemotherapy with anthracylines.
Wild type or loss-of-function C57BL/6 mice were injected s.c. with 10^6 EL4 cells into the right flank. Alternatively, wild-type BALB/c mice were injected with 5.10^5 CT26 cells into the right flank. Mice were then randomly assigned to treatment groups of 4-6 mice each. The tumor surface was monitored using a caliper. When tumor size reached 70-90 mm^2 for EL4 (9-12 days post-injection) or 60-80 mm^2 for CT26 (8-10 days post-injection), mice received chemotherapy (Apetoh et al., 2007). Mice bearing EL4 tumors were injected with oxaliplatin (5 mg/kg i.p), while mice bearing CT26 tumors were injected with doxorubicin (50 μl, 4 mM i.t). In some experiments, CT26 tumor-bearing mice received two injections (on day 0 and day 2 after the commencement of chemotherapeutic treatment) of IL-1Ra (McIntyre et al., 1991) (100 μg), anti-IL-1 antibody (100 μg) or hamster serum as a control.

EG7 cells = test: ATP assays (extracellular and intracellular ATP, luciferin-luciferase) on oxaliplatin-treated tumor cells; format: cell-based, mouse
Experimental: FIG. 1: ATP release by dying tumor cells dictates the immunogenicity of cell death. FIG. 1a. Accumulation of ATP in the extracellular space following exposure of tumor cells to chemotherapy. EG7 were treated with oxaliplatin, and ATP release into the supernatant was monitored. FIG. 1b. […] EG7 were treated with oxaliplatin for 24 hours and subsequently with antimycin A and deoxyglucose (A/D) for 20 min. Data (means±SEM of triplicates) of one representative experiment out of three are depicted. FIG. 1c. Failure of dying tumor cells depleted from ATP to elicit an OVA specific immune response. Live or oxaliplatin-treated EG7 cells were injected into the footpad of C57B1/6 mice. Five days later, popliteal lymph node cells were recovered and restimulated with the OVA holoprotein for 72 hours before quantification of IFNγ secretion. The levels of IFNγ secretion between mice immunized with ATP-depleted or not depleted EG7 were compared in three independent experiments. FIG. 1d. Inhibition of purinergic receptors with oxidized ATP (oxiATP) abolishes T cell priming by oxaliplatin-treated EG7 cells. […] Five days later, the local immune response was measured as in (a). […]
Plates were read in a Fluostar luminometer (BMG Labtech).

MCA205 cells = test: Cell death induction for vaccination, FACS analysis of Annexin V+ DAPI+ cells; format: cell-based, mouse; conditions: MCA205, 1 μM mitoxantrone, 24 hours
Experimental: Anti cancer vaccination was assessed using a previously described setting (Casares et al., 2005; Obeid et al., 2007). CT26 cells were cultured with either PBS or 20 μM doxorubicin, and MCA205 with either PBS or 1 μM mitoxantrone for 24 h. All these treatments led to ˜50% of Annexin V^+ DAPI^+ cells, as assessed by FACS analysis at 24 hours. After careful washes, cells were resuspended in sterile PBS. CT26 cells were incubated in the presence or in the absence of antimycin A and deoxyglucose (2 μg/ml and 30 mM, respectively) for 20 min, or in the presence or in the absence of Oxi-ATP ([…]). After 3 washes, 3×10^6 dying CT26 cells (or 3×10^5 MCA205 cells) were injected subcutaneously into the left flank of mice. In some experiments, 100 μg of IL-1Ra (Anakinra) was injected along with the dying cells. Seven days later, mice were rechallenged into the right flank with 5×10^5 live CT26 cells (or, alternatively, 3.10^4 live MCA205 cells). Tumor growth was then monitored weekly.

OT-1 CD8+ T cells = test: In vitro stimulation of OT-1 cells by BM-DC loaded with oxaliplatin-treated EG7; format: cell-based, mouse; conditions: rIL-1β 100 ng/ml or IL-12 10 ng/ml added to cocultures
Experimental: FIG. 15. IL-1β-dependent CTL priming by dying tumor cells in vitro and in vivo. FIG. 15a. MyD88 is required at the level of the host but not that of the APC. DC from WT mice were first loaded with antigen (OVA holoprotein with C/P adjuvant, live or oxaliplatin-treated EG7 cells) and then injected into the footpad of into WT or MyD88^−/− recipients (n=6 mice/group). Five days later, the local immune response was measured as in FIG. 2d,e. Results of one typical experiment out of three are depicted. FIG. 15b. Casp-1 and IL-1β-dependent OT-I priming in vitro. The differentiation of IFNγ producing CD8^+ OT-1 cells was induced by incubating naïve OVA-specific TCR transgenic OT-1 lymphocytes with syngeneic BM-DC (derived from WT or Casp-1^−/− mice) that were loaded with oxaliplatin-treated EG7 for 2 days in vitro. […] Exogenous addition of rIL-1β (100 ng/ml) or IL-12 (10 ng/ml) to cocultures of Casp-1^−/− DC loaded with dying tumor cells and incubated with OT1 restored T cell priming. […] FIG. 15c. Specific and direct polarizing effects of IL-1β on T lymphocytes in vitro. Purified CD3^+ CD8^+ T cells derived from naïve WT mice were stimulated with anti-CD3 and anti-CD28 mAb for 5 days in the presence of the indicated cytokines (10 ng/ml for IL-12p70, 100 ng/ml for IL-1β, IL-6 and TNFα) -and IFNγ production was measured as in FIG. 3b. FIG. 15d. […]

[1] = tested on: T cell priming for IFNγ production; test: Priming assay: dying EG7 cells injected into the footpad, IFNγ secretion of restimulated popliteal lymph node cells; format: in vivo, mice; conditions: cytokine co-injected with oxaliplatin-treated EG7: rIL-1β 250 ng, rIL-12 50 ng, rIL-6 250 ng per footpad
Experimental: 1.10^6 CT26, EG7, or B16F10 cells were either left untreated or treated with doxorubicin (20 μM) or oxaliplatin (5 μg/ml) for 24 h. Cells were then injected into the footpad of syngenic mice. In some experiments, 20 or 100 μg of IL-1Ra (Anakinra) or 250 ng of recombinant murine IL-1β (or 250 ng of IL-6 or 50 ng of IL-12) was injected along with dying tumor cells into the footpad of mice. Alternatively, DC were cocultured with EG7 cells for 2 hours, followed by the purification of CD11c^+ cells with anti-CD11c mAb coupled to magnetic beads (Miltenyi Biotec, Paris, France) and injection of these purified DC into the footpad. Five days later, gangliocytes from popliteal lymph nodes were harvested, seeded in 96 U-well plates (3.10^5 cells per well), and restimulated with 1 mg/ml OVA protein. Restimulation with MCA205 or CT26 cells was performed using 3×10^4 tumor cells killed by 5 min heating at 42° C. followed by 1 cycle of freezing/thawing in liquid nitrogen. For B16F10, restimulation was achieved using gp100 peptide as previously described (Overwijk et al., 1998). As a positive control of T cell priming, mice were injected with OVA protein (1 mg) (or gp100 for B16F10) and the association of CpG (10 μg) and Poly I:C (5 μg). For CT26 priming experiments, cell lysate plus LPS (250 ng) was used as a positive control. Supernatants were harvested 72 hours later, and IFNγ secretion was assessed by ELISA. Alternatively, cells were stimulated with PMA (10 ng/ml) and ionomycin (1 μg/ml) for 1 h, followed by the addition of brefeldin A (10 μg/ml for 6 h at 37° C.) (Apetoh et al., 2007), surface staining with Abs specific for CD3, CD4 or CD8, fixation and permeabilization (Cytofix/cytoperm kit) and then labeled with antibodies specific for IFNγ. Immunofluorescence was analyzed on a LSRII flow cytometer (BD Biosciences) with FACSDiva software.

For O=C1[O][Pt]2([NH][C@@H]3CCCC[C@H]3[NH]2)[O]C1=O [oxaliplatin], the “response of EL4 tumors to oxaliplatin” value (EL4 thymoma tumors; Casp1−/− mice versus WT controls) was “responded less efficiently”, the “therapeutic efficacy on established EL4 tumors” value (“therapeutic efficacy” below) (EL4 thymoma tumors; IfnγR1−/− mice) was “lost its therapeutic efficacy” and the “therapeutic efficacy” value (EL4 thymoma tumors; Il-12Rβ2−/− mice (and WT)) was “remained efficient”. For the same molecule, the “response of EL4 tumors to oxaliplatin” value (EL4 thymoma tumors; Nalp3−/− mice versus WT controls) was “responded less efficiently”, the “response of EL4 tumors to oxaliplatin” value (EL4 thymoma tumors; P2X7−/− mice versus WT controls) was “responded less efficiently” and the “therapeutic efficacy” value (EL4 thymoma tumors; T and B cell-deficient rag-2−/− mice) was “lost its therapeutic efficacy”. For the same molecule, the “therapeutic efficacy” value (EL4 thymoma tumors; T cell-deficient nu/nu mice) was “lost its therapeutic efficacy”, the “control of EL4 tumor growth” value (EL4 thymoma tumors; immunocompetent WT mice, oxaliplatin 5 mg/kg i.p.) was “efficient in controlling EL4 tumor growth” and the “therapeutic efficacy” value (EL4 thymoma tumors; mice depleted from CD8+ T cells) was “lost its therapeutic efficacy”. For the same molecule, the “intracellular ATP” value (EG7 cells; EG7 treated with oxaliplatin for 24 hours) was “Decrease of intracellular ATP” and the “release of ATP into the supernatant” value (EG7 cells; EL4 thymomas and EG7 cells, oxaliplatin 5 μg/ml, 0-24 hours) was “induced the release of ATP”.

O=C1c2c(O)ccc(O)c2C(=O)c2c(NCCNCCO)ccc(NCCNCCO)c21 [mitoxantrone] was tested, and the “Annexin V+ DAPI+ cells” value (MCA205 cells) was roughly 50%.

B1: IL-12: recombinant mouse IL-12 from R&D Systems (protein, UniProt P43431 23-215; P43432 23-335, looked up)
Interleukin-12 subunit alpha: RVIPVSGPARCLSQSRNLLKTTDDMVKTAREKLKHYSCTAEDIDHEDITRDQTSTLKTCLPLELHKNESCLATRETSSTTRGSCLPPQKTSLMMTLCLGSIYEDLKMYQTEFQAINAALQNHNHQQIILDKGMLVAIDELMQSLNHNGETLRQKPPVGEADPYRVKMKLCILLHAFSTRVVTINRVMGYLSSA
Interleukin-12 subunit beta: MWELEKDVYVVEVDWTPDAPGETVNLTCDTPEEDDITWTSDQRHGVIGSGKTLTITVKEFLDAGQYTCHKGGETLSHSHLLLHKKENGIWSTEILKNFKNKTFLKCEAPNYSGRFTCSWLVQRNMDLKFNIKSSSSSPDSRAVTCGMASLSAEKVTLDQRDYEKYSVSCQEDVTCPTAEETLPIELALEARQQNKYENYSTSFFIRDIIKPDPPKNLQMKPLKNSQVEVSWEYPDSWSTPHSYFSLKFFVRIQRKKEKMKETEEGCNQKGAFLVEKTSTEVQCKGGNVCVQAQDRYYNSSCSKWACVPCRVRS
For B1, the “priming capacity of Casp-1−/− DC for OT-1 cells (IFNγ)” value (OT-1 CD8+ T cells) was “restored the priming capacity” and the “T cell priming in Nalp3−/− or Casp1−/− mice” value [1] was “restored deficient T cell priming”.

From patent US20110229411A1, “USE OF P2X7 PATHWAY FOR ASSESSING THE SENSITIVITY OF A SUBJECT TO A CANCER TREATMENT” (INSTITUT GUSTAVE ROUSSY, priority 2008, published 2011)
